{"source": "paper PMC12192727", "about": "“Strategies to Develop Na,K-ATPase-α4 Inhibitors as Male Contraceptives” (International Journal of Molecular Sciences, 2025)", "key": {"MDCK cells": {"tested_on": "MDCK cells", "experiment": "MDCK cell permeability", "settings": "MDCK cell line, 0.5% BSA"}, "MDCK cell permeability": {"experiment": "MDCK cell permeability", "settings": "dog, MDCK"}, "in vitro": {"experiment": "in vitro", "settings": "dog, MDCK, MDCK cells"}, "rat hepatocytes": {"tested_on": "rat hepatocytes", "experiment": "Metabolic stability in rat hepatocytes", "format": "in vitro ADME", "description": "(§1) The in vitro metabolic half-life (t1/2) is calculated using the slope of the log−linear regression from the percentage of the parent compound remaining versus the time relationship (κ). The experimental details are reported in the Supporting Information (Tables S6 and S7)."}, "[1]": {"experiment": "Metabolic stability in rat hepatocytes", "format": "in vitro ADME", "settings": "rat hepatocytes", "description": "as §1"}, "[2]": {"tested_on": "Salmonella typhimurium strains TA98 and TA100", "experiment": "Mini Ames test", "format": "cell-based", "settings": "with and without S9", "description": "The mutagenic potential of 45 was evaluated using the Mini Ames test, which measures reverse mutations at the histidine locus in Salmonella typhimurium strains TA98 and TA100. The assay was conducted with and without exogenous metabolic activation (β-naphthoflavone/phenobarbital-induced rat liver S9). The experimental details are reported in the Supporting Information)."}, "hERG channel [3]": {"target": "T1, hERG channel (Homo sapiens, UniProt Q12809)", "T1 sequence (Q12809 whole entry)": "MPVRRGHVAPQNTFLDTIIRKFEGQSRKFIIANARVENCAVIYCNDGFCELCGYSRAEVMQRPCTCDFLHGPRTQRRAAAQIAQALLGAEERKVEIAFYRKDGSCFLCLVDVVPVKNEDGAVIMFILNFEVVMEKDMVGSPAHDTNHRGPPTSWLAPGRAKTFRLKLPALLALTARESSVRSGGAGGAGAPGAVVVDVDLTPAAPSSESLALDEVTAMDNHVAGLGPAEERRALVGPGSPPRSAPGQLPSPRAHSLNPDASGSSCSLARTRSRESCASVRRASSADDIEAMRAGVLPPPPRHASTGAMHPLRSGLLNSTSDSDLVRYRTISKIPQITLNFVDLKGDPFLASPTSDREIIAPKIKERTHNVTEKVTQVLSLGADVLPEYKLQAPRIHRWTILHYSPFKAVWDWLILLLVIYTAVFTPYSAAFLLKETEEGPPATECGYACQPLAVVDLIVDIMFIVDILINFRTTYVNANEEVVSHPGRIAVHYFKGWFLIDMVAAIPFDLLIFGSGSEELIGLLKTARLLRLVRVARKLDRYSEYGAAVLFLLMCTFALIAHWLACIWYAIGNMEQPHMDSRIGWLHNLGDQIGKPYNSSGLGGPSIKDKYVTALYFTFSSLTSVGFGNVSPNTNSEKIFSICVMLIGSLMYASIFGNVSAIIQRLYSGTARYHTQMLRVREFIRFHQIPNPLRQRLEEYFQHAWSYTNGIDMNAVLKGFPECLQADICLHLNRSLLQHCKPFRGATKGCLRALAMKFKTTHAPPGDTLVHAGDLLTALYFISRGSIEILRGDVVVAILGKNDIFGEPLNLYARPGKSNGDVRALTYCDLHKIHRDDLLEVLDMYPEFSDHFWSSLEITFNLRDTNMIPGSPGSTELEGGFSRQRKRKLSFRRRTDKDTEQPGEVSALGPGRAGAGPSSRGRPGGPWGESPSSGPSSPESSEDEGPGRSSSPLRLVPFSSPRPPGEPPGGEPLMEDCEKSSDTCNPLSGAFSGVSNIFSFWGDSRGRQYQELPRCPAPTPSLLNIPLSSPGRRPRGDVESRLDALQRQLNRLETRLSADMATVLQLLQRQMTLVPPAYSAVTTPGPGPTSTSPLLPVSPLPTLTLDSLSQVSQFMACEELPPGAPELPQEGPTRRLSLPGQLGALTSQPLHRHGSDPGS", "experiment": "hERG inhibition manual patch-clamp assay (HEK293)"}, "[4]": {"experiment": "Stability in PBS (pH 7.4)", "format": "physicochemical", "settings": "PBS pH 7.4, compound remaining after 60 min", "description": "Solubility, permeability, compound stability, metabolic stability, and toxicity studies were performed at Pharmaron (Waltham, MA, USA)."}, "mouse hepatocytes": {"tested_on": "mouse hepatocytes", "experiment": "Metabolic stability in mouse hepatocytes", "format": "in vitro ADME", "description": "as §1"}, "[5]": {"experiment": "Metabolic stability in mouse hepatocytes", "format": "in vitro ADME", "settings": "mouse hepatocytes", "description": "as §1"}, "hERG channel [6]": {"target": "T1, hERG channel"}, "mouse sperm": {"tested_on": "mouse sperm", "experiment": "Sperm motility after intraperitoneal administration to mice", "format": "in vivo", "settings": "intraperitoneal 40 mg/kg for three days", "description": "To determine whether our compounds had in vivo activity, we tested the effect of 45 after intraperitoneal administration to mice. Compound 45 was injected at a dose of 40 mg/kg for three days. This procedure is based on our previous protocol used for ouabain derivatives. After treatment for 3 days, the animals were sacrificed, sperm was isolated from the cauda epididymis, and sperm motility was assessed using CASA. Compound 45 inhibited total sperm motility by approximately 60% (Figure 9A).\nCompound 45 was administered to mice by intraperitoneal injection at a dose of 40 mg/kg of body weight for three days. This protocol was used based on our previous results. At day 3 of treatment, the animals were sacrificed, and sperm was collected from the caudal section of the epididymis. Sperm was incubated under non-capacitating and capacitating conditions, and total and hyperactive sperm motility was determined using CASA.\nFigure 9 Effect of compound 45 on total (A) and hyperactive (B) sperm motility in mice in vivo. 45 was administered via intraperitoneal injection at a dosage of 40 mg/kg of body weight for 3 days. Total and hyperactive sperm motility was assessed using sperm from the cauda epididymis. Hyperactive motility was evaluated after incubating the cells in a medium that supports sperm capacitation for 1 h. Sperm motility was analyzed using CASA. […]"}, "[7]": {"experiment": "LogD, 1-octanol/phosphate buffer pH 7.4", "format": "physicochemical"}}, "note": "pIC50: −log10 of the molar value. Marks after values point to notes of the source that are not given here."}
{"smiles": "C[C@]12CC[C@H]3[C@@H](CC=C4C[C@@H](O)CC[C@@]43C)[C@@H]1CC[C@@H]2c1cn(Cc2ccccc2)nn1", "note": "[Compound 13, (3S,8S,9S,10R,13S,14S,17S)-17-(1-Benzyl-1H-1,2,3-triazol-4-yl)-10,13-dimethyl-2,3,4,7,8,9,10,11,12,13,14,15,16,17-tetradecahydro-1H-cyclopenta[a]phenanthren-3-ol]", "values": [{"measurement": "Permeability Papp (A-B)", "setting": "MDCK cells", "value": "poor"}, {"measurement": "Papp B→A", "setting": "MDCK cell permeability", "value": 0.78, "unit": "×10⁻⁶ cm/s"}, {"measurement": "efflux ratio", "setting": "MDCK cell permeability", "value": 1.24}, {"measurement": "Papp A→B", "setting": "MDCK cell permeability; Papp (A-B), MDCK cells, BSA 0% for controls, 0.5% for 13", "value": 0.63, "unit": "×10⁻⁶ cm/s"}, {"measurement": "Papp A→B", "setting": "MDCK cell permeability; Permeability Papp (A-B), MDCK cell line, 0.5% BSA", "value": 0.6, "unit": "×10⁻⁶ cm/s"}, {"measurement": "recovery", "setting": "in vitro; Recovery (%) AP-BL", "value": 70.2, "unit": "%"}, {"measurement": "recovery", "setting": "in vitro; Recovery (%) BL-AP", "value": 88.1, "unit": "%"}]}
{"smiles": "CC12CCC(=O)C=C1CCCC2n1cc(-c2ccccc2)nn1", "note": "(centres unmarked) [Compound 45, 4a-Methyl-5-(4-phenyl-1H-1,2,3-triazol-1-yl)-4,4a,5,6,7,8-hexahydronaphthalen-2(3H)-one]", "values": [{"measurement": "Remaining Percentage (%)", "setting": "rat hepatocytes; rat boiled hepatocytes, 0 min", "value": 100.00, "unit": "%"}, {"measurement": "Remaining Percentage (%)", "setting": "rat hepatocytes; rat boiled hepatocytes, 15 min", "value": 101.65, "unit": "%"}, {"measurement": "Remaining Percentage (%)", "setting": "rat hepatocytes; rat boiled hepatocytes, 30 min", "value": 104.87, "unit": "%"}, {"measurement": "Remaining Percentage (%)", "setting": "rat hepatocytes; rat boiled hepatocytes, 60 min", "value": 104.47, "unit": "%"}, {"measurement": "Remaining Percentage (%)", "setting": "rat hepatocytes; rat boiled hepatocytes, 90 min", "value": 104.04, "unit": "%"}, {"measurement": "Remaining Percentage (%)", "setting": "rat hepatocytes; rat boiled hepatocytes, 120 min", "value": 104.50, "unit": "%"}, {"measurement": "Hepatic Extraction Ratio (E)", "setting": "rat hepatocytes; rat hepatocytes", "value": 0.86}, {"measurement": "Predicted hepatic CL", "setting": "rat hepatocytes; rat hepatocytes", "value": 47.44, "unit": "mL/min/kg"}, {"measurement": "Remaining Percentage (%)", "setting": "rat hepatocytes; rat hepatocytes, 0 min", "value": 100.00, "unit": "%"}, {"measurement": "Remaining Percentage (%)", "setting": "rat hepatocytes; rat hepatocytes, 15 min", "value": 51.55, "unit": "%"}, {"measurement": "Remaining Percentage (%)", "setting": "rat hepatocytes; rat hepatocytes, 30 min", "value": 26.35, "unit": "%"}, {"measurement": "Remaining Percentage (%)", "setting": "rat hepatocytes; rat hepatocytes, 60 min", "value": 9.77, "unit": "%"}, {"measurement": "Remaining Percentage (%)", "setting": "rat hepatocytes; rat hepatocytes, 90 min", "value": 3.36, "unit": "%"}, {"measurement": "Remaining Percentage (%)", "setting": "rat hepatocytes; rat hepatocytes, 120 min", "value": 1.25, "unit": "%"}, {"measurement": "Metabolic Stability in Hepatocytes (60 min), compound remaining", "setting": "rat hepatocytes; rat, 60 min", "value": 10, "unit": "%"}, {"measurement": "hepatocyte CLint at 1 μM", "setting": "[1]; read-out: In vitro Clint", "value": 72.2, "unit": "µL/min/1e6 cells"}, {"measurement": "half-life at 1 µM", "setting": "[1]; rat, hepatocytes, read-out: In vitro T1/2", "value": 19.2, "unit": "min"}, {"measurement": "CLint scaled at 1 µM", "setting": "[1]; rat, hepatocytes, read-out: Scale-up Clint", "value": 338, "unit": "mL/min/kg"}, {"measurement": "Mini Ames", "setting": "[2]", "value": "Mini Ames ^e: negative"}, {"measurement": "pIC50", "setting": "hERG channel [3]", "value": "< 4.52"}, {"measurement": "Stability", "setting": "[4]", "value": "Stability: 96% ^a"}, {"measurement": "Remaining Percentage (%)", "setting": "mouse hepatocytes; mouse boiled hepatocytes, 0 min", "value": 100.00, "unit": "%"}, {"measurement": "Remaining Percentage (%)", "setting": "mouse hepatocytes; mouse boiled hepatocytes, 15 min", "value": 104.93, "unit": "%"}, {"measurement": "Remaining Percentage (%)", "setting": "mouse hepatocytes; mouse boiled hepatocytes, 30 min", "value": 101.77, "unit": "%"}, {"measurement": "Remaining Percentage (%)", "setting": "mouse hepatocytes; mouse boiled hepatocytes, 60 min", "value": 101.78, "unit": "%"}, {"measurement": "Remaining Percentage (%)", "setting": "mouse hepatocytes; mouse boiled hepatocytes, 90 min", "value": 101.42, "unit": "%"}, {"measurement": "Remaining Percentage (%)", "setting": "mouse hepatocytes; mouse boiled hepatocytes, 120 min", "value": 100.86, "unit": "%"}, {"measurement": "Hepatic Extraction Ratio (E)", "setting": "mouse hepatocytes; mouse hepatocytes", "value": 0.91}, {"measurement": "Predicted hepatic CL", "setting": "mouse hepatocytes; mouse hepatocytes", "value": 81.91, "unit": "mL/min/kg"}, {"measurement": "Remaining Percentage (%)", "setting": "mouse hepatocytes; mouse hepatocytes, 0 min", "value": 100.00, "unit": "%"}, {"measurement": "Remaining Percentage (%)", "setting": "mouse hepatocytes; mouse hepatocytes, 15 min", "value": 54.16, "unit": "%"}, {"measurement": "Remaining Percentage (%)", "setting": "mouse hepatocytes; mouse hepatocytes, 30 min", "value": 31.17, "unit": "%"}, {"measurement": "Remaining Percentage (%)", "setting": "mouse hepatocytes; mouse hepatocytes, 60 min", "value": 10.30, "unit": "%"}, {"measurement": "Remaining Percentage (%)", "setting": "mouse hepatocytes; mouse hepatocytes, 90 min", "value": 3.01, "unit": "%"}, {"measurement": "Remaining Percentage (%)", "setting": "mouse hepatocytes; mouse hepatocytes, 120 min", "value": 0.80, "unit": "%"}, {"measurement": "Metabolic Stability in Hepatocytes (60 min), compound remaining", "setting": "mouse hepatocytes; mouse, 60 min", "value": 10, "unit": "%"}, {"measurement": "hepatocyte CLint at 1 μM", "setting": "[5]; read-out: In vitro Clint", "value": 77.1, "unit": "µL/min/1e6 cells"}, {"measurement": "CLint scaled at 1 µM", "setting": "[5]; read-out: Scale-up Clint", "value": 911, "unit": "mL/min/kg"}, {"measurement": "half-life at 1 µM", "setting": "[5]; mouse, hepatocytes, read-out: In vitro T1/2", "value": 18, "unit": "min"}, {"measurement": "hERG IC50", "setting": "hERG channel [6]", "value": "weak inhibitor"}, {"measurement": "Hyperactive sperm motility in vivo", "setting": "mouse sperm; capacitating medium 1 h", "value": "reduced"}, {"measurement": "Inhibition of total sperm motility in vivo", "setting": "mouse sperm; cauda epididymis sperm, CASA", "value": "approximately 60%"}, {"measurement": "logD", "setting": "[7]", "value": 2.66}]}
